Results taken from US10004225B2, “Wearable insect repelling patch” (S. C. Johnson & Son, Inc., priority 2005, dated 2018).
Like-named read-outs stand apart in the source and are kept apart here.

Columns and labels:
[1] = test system: mosquitoes; assay: Three-chamber test apparatus, mosquito personal area repellency of hung patches with human test subject as attractant; type: in vivo; details: for personal area control (result in words): no adhesive layer
Description: Various patch sizes and insect repellents were tested, initially using the test apparatus shown schematically generally at 20 in FIG. 3. The test apparatus 20 has a sample chamber 22, connected to a mosquito chamber 24, which is connected via an opening 34 to a remote chamber 26. Each chamber is generally cubical, with a volume of about 0.43 m^3.
The sample chamber 22 has an open end 28 on the side remote from the mosquito chamber 24. A screen 30 divides the sample chamber 22 from the mosquito chamber 24. The opening 34 between the mosquito chamber 24 and the remote chamber 26 is slightly constricted by side walls 32. However, the opening 34 is still sufficiently large that mosquitoes can freely move between the mosquito and remote chambers 24 and 26.
Four, screened, low-flow exhaust ports 36 are located in the side walls 32, the exhaust ports facing the open end 28. Air is drawn through the exhaust ports 36 and exhausted from the mosquito chamber 24 at a rate sufficient to draw air in through the open end 28 but insufficient to affect the flying of mosquitoes placed in the mosquito chamber 24 or to disturb the air in the remote chamber 26.
For each test, a human test subject 38 is placed at the open end 28 of the sample chamber 22, the test subject's breath providing the warmth, CO2, and moisture known to be human attractants for mosquitoes. The exhaust ports 36 pull air, along with those attractants, though the open end 28 and on through the sample chamber 22, the screen 30, and the mosquito chamber 24. The attractants thus leave the apparatus 20 without entering the remote chamber 26.
Mosquitoes are placed in the mosquito chamber 24 and are quickly attracted to the screen 30 by the human attractants. The open end 28 is large enough to expose primarily the upper torso and head of the test subject. Two patches 10 are hung one foot into the sample chamber 22 and approximately 20 cm down from the chamber's top (except as was done otherwise in particular experiments, as is noted, below).
Percent repellency was calculated as the percent of mosquitoes that had been initially introduced into the mosquito chamber 24 (most of which were attracted to the screen 30 before the patches 10 were put in place), that then were repelled from the screen when the patches were introduced. The “repellency” indicated in the table, below, for time zero reflects the mosquitoes that were not yet attracted to the screen 30 by the time the test patches 10 were introduced. […] The patches 10 used were 103 cm^2 in size, with no adhesive layer 18.
The patch material was a non-woven cloth material comprised of rayon, polyester, and polypropylene (as described in published U.S. Patent Application US20040082248), dosed with 60 mg of the active ingredient. The controls used no patches.
The same test apparatus 20 was used in the same way as described in Example 1, with the following changes. When a test included four patches 10, two were hung as in Example 1, and two were hung about 13 cm from the bottom of the chamber to simulate patches worn on the shoulders and at the waist of a user. In one test, as indicated in the table, below, the patches 10 were attached to the test subject's chest. Each individual patch was treated with the amount of insect repellent indicated. Time is shown in minutes.

[2] = cited from earlier work
[3] = Example 1, 2 patches 103 cm^2, 60 mg each
[4] = Example 1, 2 patches 103 cm^2, 60 mg each, no adhesive, 5 min
[5] = Example 1, 2 patches 103 cm^2, 60 mg each, no adhesive, 10 min
[6] = Example 1, 2 patches 103 cm^2, 60 mg each, no adhesive, 15 min
[7] = Example 1, 2 patches 103 cm^2, 60 mg each, no adhesive, 20 min
[8] = Example 1, 2 patches 103 cm^2, 60 mg each, no adhesive, time 0 min (mosquitoes not yet attracted to screen)

C#C[C@@H](OC(=O)[C@@H]1[C@@H](C=C(C)C)C1(C)C)C(C)=CCC (racemic) [emphenthrin, (RS)-1-ethynyl-2-methyl-2-pentenyl-(1RS,3RS)-2,2-dimethyl-3-(2-methylpropenyl)-cyclopropanecarboxylate]
% Repellency ([1]; Example 2, 2 patches 103 cm^2, 60 mg each, 0 min): 17
% Repellency ([1]; Example 2, 2 patches 103 cm^2, 60 mg each, 5 min): 33
% Repellency ([1]; Example 2, 2 patches 103 cm^2, 60 mg each, 10 min): 29
% Repellency ([1]; Example 2, 2 patches 103 cm^2, 60 mg each, 15 min): 29
practical mosquito personal area repellency (result in words) ([1]; Example 2, 2 patches 103 cm^2, 60 mg each, within 20 minutes): proved not to be an insect repellent capable of providing practical mosquito personal area repellency within 20 minutes

CC=C[C@@H]1[C@@H](C(=O)OCc2c(F)c(F)c(C)c(F)c2F)C1(C)C (racemic) [profluthrin, 2,3,5,6-tetrafluoro-4-methylbenzyl (EZ)-(1RS,3RS)-2,2-dimethyl-3-(prop-1-enyl)-cyclopropanecarboxylate]
personal area repellency (result in words) [1, 3]: successful personal area repellency
% Repellency [1, 4]: 55%
% Repellency [1, 5]: 67%
% Repellency [1, 6]: 91%
% Repellency [1, 7]: 93%
% Repellency [1, 8]: 6%
Vapor pressure ([2]; @ 25° C.): 7.73 × 10^−5 mmHg @

COP(=O)(OC)OC=C(Cl)Cl [DDVP, 2,2-dichlorovinyl dimethyl phosphate]
% Repellency ([1]; Example 2, 4 patches 103 cm^2, 60 mg each, 0 min): 5
% Repellency ([1]; Example 2, 4 patches 103 cm^2, 60 mg each, 5 min): 11
% Repellency ([1]; Example 2, 4 patches 103 cm^2, 60 mg each, 10 min): 47
% Repellency ([1]; Example 2, 4 patches 103 cm^2, 60 mg each, 15 min): 95
% Repellency ([1]; Example 2, 4 patches 103 cm^2, 60 mg each, 20 min): 95
personal area control (result in words) ([1]; Example 2, 4 patches, each 103 cm^2 in gross area): successful personal area control
Vapor pressure ([2]; @ 20° C.): 1.2 × 10^−5 mmHg @

CC1(C)[C@H](C=C(Cl)Cl)[C@H]1C(=O)OCc1c(F)c(F)cc(F)c1F [transfluthrin, (1R-trans)-(2,3,5,6-tetrafluorophenyl)-methyl-3-(2,2-dichloroethenyl)-2,2-dimethylcyclopropanecarboxylate]
personal area repellency (result in words) [1, 3]: successful personal area repellency
% Repellency [1, 4]: 54%
% Repellency [1, 5]: 75%
% Repellency [1, 6]: 90%
% Repellency [1, 7]: 92%
% Repellency [1, 8]: 13%
% Repellency ([1]; Example 2, 2 patches 25.8 cm^2, 30 mg each, 0 min): 13
% Repellency ([1]; Example 2, 2 patches 25.8 cm^2, 30 mg each, 5 min): 41
% Repellency ([1]; Example 2, 2 patches 25.8 cm^2, 30 mg each, 10 min): 68
% Repellency ([1]; Example 2, 2 patches 25.8 cm^2, 30 mg each, 15 min): 74
% Repellency ([1]; Example 2, 2 patches 25.8 cm^2, 30 mg each, 20 min): 79
% Repellency ([1]; Example 2, 2 patches 103.22 cm^2 taped to test subject's chest, 60 mg each, 0 min): 19
% Repellency ([1]; Example 2, 2 patches 103.22 cm^2 taped to test subject's chest, 60 mg each, 5 min): 33
% Repellency ([1]; Example 2, 2 patches 103.22 cm^2 taped to test subject's chest, 60 mg each, 10 min): 44
% Repellency ([1]; Example 2, 2 patches 103.22 cm^2 taped to test subject's chest, 60 mg each, 15 min): 52
% Repellency ([1]; Example 2, 2 patches 103.22 cm^2 taped to test subject's chest, 60 mg each, 20 min): 81
% Repellency ([1]; Example 2, 4 patches 6.45 cm^2, 120 mg each, 0 min): 11
% Repellency ([1]; Example 2, 4 patches 6.45 cm^2, 120 mg each, 5 min): 21
% Repellency ([1]; Example 2, 4 patches 6.45 cm^2, 120 mg each, 10 min): 32
% Repellency ([1]; Example 2, 4 patches 6.45 cm^2, 120 mg each, 15 min): 42
% Repellency ([1]; Example 2, 4 patches 6.45 cm^2, 120 mg each, 20 min): 47
% Repellency ([1]; Example 2, 4 patches* 6.45 cm^2, 60 mg each, 4th patch added 10 minutes into test, 0 min): 5
% Repellency ([1]; Example 2, 4 patches* 6.45 cm^2, 60 mg each, 4th patch added 10 minutes into test, 5 min): 26
% Repellency ([1]; Example 2, 4 patches* 6.45 cm^2, 60 mg each, 4th patch added 10 minutes into test, 10 min): 47
% Repellency ([1]; Example 2, 4 patches* 6.45 cm^2, 60 mg each, 4th patch added 10 minutes into test, 15 min): 47
% Repellency ([1]; Example 2, 4 patches* 6.45 cm^2, 60 mg each, 4th patch added 10 minutes into test, 20 min): 47
personal area control (result in words) ([1]; Example 2, total area of patches at least 51.6 cm^2 (2 patches, each 25.8 cm^2)): successful personal area control
Vapor pressure ([2]; @ 20° C.): 3.0 × 10^−6 mmHg @
